Results: US9115121B2, “1,3,5-triazine-2-amine derivatives, preparation thereof and diagnostic and therapeutic use thereof” (SANOFI, priority 2011, dated 2015)
pIC50: −log10 of the molar value. Read-outs that look alike come from different tables or passages of the source.

Biological target: human CB2 receptors (Homo sapiens (Human), UniProt P34972)
Experiment: Affinity binding test on human CB2 receptors (tritiated ligand, membranes of recombinant cell lines)
Conditions: for IC50: concentration causing 50% inhibition of specific binding of the tritiated ligand, read-out: IC50 (nM) hCB2; for pIC50: reported in text, read-out: IC50 on hCB2
Experimental: Affinity binding tests were performed according to the experimental conditions described by M. Rinaldi-Carmona in J. Pharmacol. Exp. Therap. 1998, 287, 644-650, with membranes derived either from rodent tissues or from recombinant cell lines in which the human CB2 receptors were expressed (Munro et al., Nature 1993, 365, 61-65). The affinity of the compounds is expressed in the form of the IC50 (concentration causing 50% inhibition of specific binding of the tritiated ligand used in vitro).

Sequence of human CB2 receptors (P34972 whole entry): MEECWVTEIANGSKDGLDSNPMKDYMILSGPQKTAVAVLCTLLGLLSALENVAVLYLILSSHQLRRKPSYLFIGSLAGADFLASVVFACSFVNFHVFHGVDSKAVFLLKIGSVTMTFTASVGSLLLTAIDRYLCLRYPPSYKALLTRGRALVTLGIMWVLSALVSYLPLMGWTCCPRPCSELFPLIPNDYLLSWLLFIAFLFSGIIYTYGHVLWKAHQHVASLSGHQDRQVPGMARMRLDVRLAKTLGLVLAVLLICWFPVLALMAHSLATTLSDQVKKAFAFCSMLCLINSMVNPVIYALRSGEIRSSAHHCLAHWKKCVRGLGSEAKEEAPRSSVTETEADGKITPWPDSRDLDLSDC

Molecule `COc1nc(NCCc2ccc(F)cc2)nc(-c2ccc3[nH]ccc3c2)n1` [Compound 28] has an IC50 of 34 nM.
`COc1nc(NCCc2ccc(F)cc2)nc(-c2cc3cc(C#N)ccc3[nH]2)n1` [Compound 25] showed an IC50 of 27 nM.
`COc1nc(NCCc2ccc(F)cc2)nc(-c2cc3cc(Br)ccc3[nH]2)n1` [Compound 17] showed an IC50 of 17 nM.
Work on `COc1nc(NCCc2ccc(F)cc2)nc(-c2cc3c(OC)cccc3[nH]2)n1` [Compound 23] yielded an IC50 of 33 nM.
In the case of `COc1nc(NCCc2ccc(F)cc2)nc(-c2ccc3nonc3c2)n1` [Compound 31], the IC50 was 42 nM.
`COc1nc(NCCc2ccc(F)cc2)nc(-c2ccc(Cl)c(OCCCNS(C)(=O)=O)c2)n1` [Compound 66] showed an IC50 of 18 nM.
For `COc1nc(NCCc2ccc(F)cc2)nc(-c2ccc(F)c(C(C)(C)O)c2)n1` [Compound 14], the IC50 was 8 nM.
Work on `COc1nc(NCCc2ccc(F)cc2)nc(-c2cc3cc(Cl)ccc3o2)n1` [Compound 51] yielded an IC50 of 23 nM.
For `COc1nc(NCCc2ccc(OCF)cc2)nc(-c2ccc(OC)c(C(C)(C)O)c2)n1` [Compound 70], the IC50 was 9 nM.
For `COc1nc(NCCc2ccc(OC(F)F)cc2)nc(-c2cccc(OC)c2C(C)(C)O)n1` [Compound 49], the IC50 was 4 nM.
Work on `COc1nc(NCCc2ccc(F)cc2)nc(-c2cc3ccc(SC)cc3[nH]2)n1` [Compound 26] yielded an IC50 of 37 nM.
`COc1nc(NCCc2ccc(F)cc2)nc(-c2ccc(OC)c(C#N)c2)n1` [Compound 64] was tested, and the IC50 was 19 nM.
In the case of `COc1nc(NCCc2ccc(F)cc2)nc(-c2ccc(F)c3cccnc23)n1` [Compound 37], the IC50 was 1 nM.
With `COc1nc(NCCc2ccc(F)cc2)nc(-c2ccc(Cl)c(C(C)(C)O)c2)n1` [Compound 13] the IC50 was 0.4 nM.
With `COc1nc(NCCc2ccc(F)cc2)nc(-c2ccc(N(C)C)nc2)n1` [Compound 16] the IC50 was 35 nM.
`COc1nc(NCCc2ccc(F)cc2)nc(-c2cncc3ccccc23)n1` [Compound 40] showed an IC50 of 21 nM.
For `COc1nc(NCCc2ccc(F)cc2)nc(-c2cccc3[nH]ccc23)n1` [Compound 27], the IC50 was 27 nM.
`COc1nc(NCCc2ccc(F)cc2)nc(-c2cccc3ncccc23)n1` [Compound 34] gave an IC50 of 47 nM.
With `COc1nc(NCCc2ccc(F)cc2)nc(-c2cccc(OC(C)C)c2)n1` [Compound 2] the IC50 was 39 nM.
In the case of `COc1nc(NCCc2ccc(F)cc2)nc(-c2ccc(OC)c3nc(C)ccc23)n1` [Compound 39], the IC50 was 38 nM.
Work on `CC(C)(O)c1cc(-c2nc(NCCc3ccc(F)cc3)nc(OCF)n2)ccc1Cl` [Compound 71, 2-{2-Chloro-5-[4-(fluoromethoxy)-6-{[2-(4-fluorophenyl)ethyl]amino}-1,3,5-triazin-2-yl]phenyl}propan-2-ol] yielded a pIC50 of 8.92.
For `COc1nc(NCCc2ccc(F)cc2)nc(-c2cc3cc(Cl)ccc3[nH]2)n1` [Compound 19], the IC50 was 14 nM.
For `COc1nc(NCCc2ccc(OC(F)F)cc2)nc(-c2ccc(F)c(C(C)(C)O)c2)n1` [Compound 45], the IC50 was 30 nM.
Molecule `COC(=O)CCc1cccc(-c2nc(NCCc3ccc(F)cc3)nc(OC)n2)c1` [Compound 6] has an IC50 of 12 nM.
For `COc1nc(NCCc2ccc(F)cc2)nc(-c2ccc(C)c3ncccc23)n1` [Compound 38], the IC50 was 38 nM.
Work on `COc1nc(NCCc2ccc(F)cc2)nc(-c2ccc(SC)cc2)n1` [Compound 5] yielded an IC50 of 14 nM.
`COc1nc(NCCc2ccc(OC(F)(F)F)cc2)nc(-c2ccc(OC)c(C(C)(C)O)c2)n1` [Compound 54] showed an IC50 of 9 nM.
Molecule `COc1nc(NCCc2ccc(OC(F)F)cc2)nc(-c2cc3c(Cl)cccc3[nH]2)n1` [Compound 42] has an IC50 of 24 nM.
Work on `CCC(O)(CC)c1cccc(-c2nc(NCCc3ccc(F)cc3)nc(OC)n2)c1` [Compound 57] yielded an IC50 of 21 nM.
`COc1ccc2oc(-c3nc(NCCc4ccc(F)cc4)nc(OC)n3)cc2c1` [Compound 48] gave an IC50 of 12 nM.
Molecule `COc1nc(NCCc2ccc(F)cc2)nc(-c2ccc3c(c2)OCCO3)n1` [Compound 8] has an IC50 of 14 nM.
For `COc1ccc2[nH]c(-c3nc(NCCc4ccc(F)cc4)nc(OC)n3)cc2c1` [Compound 24], the IC50 was 21 nM.
Molecule `COc1nc(NCCc2ccc(F)cc2)nc(-c2ccc(CO)c(S(=O)(=O)NC3CC3)c2)n1` [Compound 59] has an IC50 of 25 nM.
Work on `COc1nc(NCCc2ccc(OC(F)F)cc2)nc(-c2cccc(C(C)(C)O)c2)n1` [Compound 44] yielded an IC50 of 18 nM.
`COc1nc(NCCc2ccc(F)cc2)nc(-c2cc3ccccc3o2)n1` [Compound 30] gave an IC50 of 5 nM.
For `COc1ccc(-c2nc(NCCc3ccc(F)cc3)nc(OCF)n2)cc1C(C)(C)O` [Compound 72, 2-{5-[4-(Fluoromethoxy)-6-{[2-(4-fluorophenyl)ethyl]amino}-1,3,5-triazin-2-yl]-2-methoxyphenyl}propan-2-ol], the pIC50 was 8.92.
Work on `COc1nc(NCCc2ccc(F)cc2)nc(-c2ccc3c(c2)OCO3)n1` [Compound 7] yielded an IC50 of 9 nM.
`COc1nc(NCCc2ccc(F)cc2)nc(-c2cnc3ccccc3c2)n1` [Compound 32] gave an IC50 of 34 nM.
`COc1nc(NCCc2ccc(F)cc2)nc(-c2ccc3ncccc3c2)n1` [Compound 35] gave an IC50 of 32 nM.
In the case of `COc1nc(NCCc2ccc(F)cc2)nc(-c2cccc(C(C)=O)c2F)n1` [Compound 10], the IC50 was 10 nM.
In the case of `COc1nc(NCCc2ccc(F)cc2)nc(-c2cccc3cccnc23)n1` [Compound 36], the IC50 was 17 nM.
Work on `COc1nc(NCCc2ccc(OC(F)F)cc2)nc(-c2cccc(S(=O)(=O)NC3CC3)c2)n1` [Compound 60] yielded an IC50 of 23 nM.
In the case of `COc1nc(NCCc2ccc(F)cc2)nc(-c2cccc(S(=O)(=O)NC3CC3)c2)n1` [Compound 11], the IC50 was 2.7 nM.
`COc1nc(NCCc2ccc(F)cc2)nc(-c2ccc(Cl)c(S(=O)(=O)NC3CC3)c2)n1` [Compound 62] gave an IC50 of 4 nM.
`COc1nc(NCCc2ccc(F)cc2)nc(-c2ccc3cc[nH]c3c2)n1` [Compound 29] gave an IC50 of 14 nM.
In the case of `COc1nc(NCCc2ccc(F)cc2)nc(-c2ccc(C(C)(C)O)c(OC)c2)n1` [Compound 15], the IC50 was 17 nM.
Molecule `COc1nc(NCCc2ccc(OC(F)(F)F)cc2)nc(-c2ccc(Cl)c(C(C)(C)O)c2)n1` [Compound 50] has an IC50 of 12 nM.
Molecule `COc1nc(NCCc2ccc(F)cc2)nc(-c2ccnc3ccccc23)n1` [Compound 33] has an IC50 of 11 nM.
Molecule `COc1nc(NCCc2ccc(F)cc2)nc(-c2cc3cc(C)ccc3[nH]2)n1` [Compound 22] has an IC50 of 24 nM.
Molecule `COc1nc(NCCc2ccc(F)cc2)nc(-c2ccc(OC)c(OC)c2)n1` [Compound 3] has an IC50 of 11 nM.
Work on `COc1nc(NCCc2ccc(F)cc2)nc(-c2cccc3cnccc23)n1` [Compound 41] yielded an IC50 of 20 nM.
`COc1nc(NCCc2ccc(OC(F)F)cc2)nc(-c2ccc(Cl)c(OCC(N)=O)c2)n1` [Compound 68] was tested, and the IC50 was 11 nM.
In the case of `COc1nc(NCCc2ccc(OC(F)F)cc2)nc(-c2ccc(C)c(S(=O)(=O)NC3CC3)c2)n1` [Compound 55], the IC50 was 44 nM.
`COc1nc(NCCc2ccc(F)cc2)nc(-c2cc3ccc(F)cc3[nH]2)n1` [Compound 21] gave an IC50 of 48 nM.
Work on `COc1nc(NCCc2ccc(OC(F)F)cc2)nc(-c2cc3cc(F)ccc3[nH]2)n1` [Compound 43] yielded an IC50 of 45 nM.
For `COc1nc(NCCc2ccc(F)cc2)nc(-c2cc3ccccc3s2)n1` [Compound 47], the IC50 was 4 nM.
